Measurements as given in patent US12435059B2, “AMP-activated protein kinase inhibitors and methods of making and using the same” (The Regents of the University of Colorado, priority 2019, dated 2025).
Read-outs that look alike come from different tables or passages of the source. Blank lines part the entries; values can stand above or below the molecule they belong to.

Tests used:
K562 cells [1] = assay: MTS cell viability assay in K562 cells; type: cell-based; settings: Homo sapiens; K562, RPMI-1640; Table 2 head prints 24 h, method and FIG. 3A legend 72 hours
Protocol: (§1) The cells were incubated with inhibitors for 24 hours, before the plates were equilibrated to room temperature and 100 μL CellTiter-Glo reagent was added. […] Luminescent signal was plotted against the inhibitor log-dose and evaluated by a non-linear regression to determine half-maximal effect concentration (EC50) values, where possible.
An MTS assay was utilized to assess the effect of inhibitors on K562 viability.

K562 cells [2] = assay: CellTox green cellular toxicity assay in K562 cells (glucose-free media); type: cell-based; settings: for EC50: Homo sapiens
Source text: Fluorescence was plotted against inhibitor log-dose and evaluated by a non-linear regression to determine half-maximal effect concentration (EC50) values, where possible.
(§2) In order to increase the reliance of the cells on AMPK function, assays were needed that could be performed under glucose-free conditions. Therefore in order to elucidate the mechanism of action of the AMPK inhibitors, a CellTiter-Glo cell viability assay (FIG. 3B), which provide a readout proportional to ATP concentration, and thus, cellular viability, as well as a CellTox green cellular toxicity assay (FIG. 3C and FIG. 3D), which contain a dye that fluoresces upon DNA-binding in cells with impraied membrane integrity due to cytotoxicity were performed in K562 cells grown in glucose-free media. The results are summarized in Table 2 (values are the mean±S.D. (n=3)).

AMPKα1 [3] = target: T1, AMPKα1 (Homo sapiens (Human), UniProt Q13131); assay: LANCE Eu TR-FRET recombinant kinase assay, AMPK(α1); type: biochemical
Protocol: (§3) Assays were performed at 25° C. in a reaction mixture consisting of 2.5 μL serially diluted inhibitor solution, 2.5 μL kinase, 2.5 μL ATP and 2.5 μL substrate. Reagents were incubated for 1 hr before the reaction was halted through the addition of EDTA (10 mM) after which Eu anti-phospho-CREB (Ser133) antibody (PerkinElmer) was added at a final concentration of 2 nM for 1 hr. […] (n=3)).
Target sequence in this assay (Q13131 whole entry, looked up): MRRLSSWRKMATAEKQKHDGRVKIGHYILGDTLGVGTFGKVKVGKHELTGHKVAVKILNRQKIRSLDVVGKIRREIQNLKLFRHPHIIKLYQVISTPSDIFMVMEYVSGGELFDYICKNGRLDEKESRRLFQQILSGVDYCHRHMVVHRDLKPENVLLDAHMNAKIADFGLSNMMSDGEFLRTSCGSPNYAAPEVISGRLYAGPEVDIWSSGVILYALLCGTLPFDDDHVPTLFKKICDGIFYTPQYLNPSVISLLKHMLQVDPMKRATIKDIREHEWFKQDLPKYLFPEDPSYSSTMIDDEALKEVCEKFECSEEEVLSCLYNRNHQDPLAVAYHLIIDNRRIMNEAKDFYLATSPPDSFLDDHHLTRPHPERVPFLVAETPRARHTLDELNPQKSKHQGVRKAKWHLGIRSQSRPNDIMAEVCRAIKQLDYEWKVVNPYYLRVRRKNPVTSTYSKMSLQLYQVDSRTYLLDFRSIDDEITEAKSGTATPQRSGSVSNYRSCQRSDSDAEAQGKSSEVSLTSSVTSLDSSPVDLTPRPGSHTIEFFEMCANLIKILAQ
Target sequence in this assay (Q9Y478 whole entry partner, looked up): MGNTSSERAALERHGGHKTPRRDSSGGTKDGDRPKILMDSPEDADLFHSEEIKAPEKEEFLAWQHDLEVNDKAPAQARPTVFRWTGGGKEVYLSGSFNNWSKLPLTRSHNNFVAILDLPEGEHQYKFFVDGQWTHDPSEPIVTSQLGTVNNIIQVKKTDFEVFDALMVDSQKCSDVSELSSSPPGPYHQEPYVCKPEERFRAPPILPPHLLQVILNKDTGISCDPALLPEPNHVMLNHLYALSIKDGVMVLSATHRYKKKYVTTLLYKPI
Target sequence in this assay (P54619 whole entry partner, looked up): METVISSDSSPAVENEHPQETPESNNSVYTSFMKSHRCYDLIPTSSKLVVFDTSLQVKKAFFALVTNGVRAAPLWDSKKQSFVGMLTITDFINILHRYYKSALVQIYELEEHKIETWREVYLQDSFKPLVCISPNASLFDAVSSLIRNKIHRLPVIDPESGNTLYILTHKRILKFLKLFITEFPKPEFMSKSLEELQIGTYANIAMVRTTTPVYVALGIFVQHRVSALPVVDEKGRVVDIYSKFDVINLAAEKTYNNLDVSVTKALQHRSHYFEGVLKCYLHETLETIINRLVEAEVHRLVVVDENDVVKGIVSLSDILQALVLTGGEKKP

AMPK(α2) = AMPK(α2) (Homo sapiens (Human), UniProt P54646); assay: LANCE Eu TR-FRET recombinant kinase assay, AMPK(α2); type: biochemical
Sequence of AMPK(α2) (P54646 whole entry, looked up): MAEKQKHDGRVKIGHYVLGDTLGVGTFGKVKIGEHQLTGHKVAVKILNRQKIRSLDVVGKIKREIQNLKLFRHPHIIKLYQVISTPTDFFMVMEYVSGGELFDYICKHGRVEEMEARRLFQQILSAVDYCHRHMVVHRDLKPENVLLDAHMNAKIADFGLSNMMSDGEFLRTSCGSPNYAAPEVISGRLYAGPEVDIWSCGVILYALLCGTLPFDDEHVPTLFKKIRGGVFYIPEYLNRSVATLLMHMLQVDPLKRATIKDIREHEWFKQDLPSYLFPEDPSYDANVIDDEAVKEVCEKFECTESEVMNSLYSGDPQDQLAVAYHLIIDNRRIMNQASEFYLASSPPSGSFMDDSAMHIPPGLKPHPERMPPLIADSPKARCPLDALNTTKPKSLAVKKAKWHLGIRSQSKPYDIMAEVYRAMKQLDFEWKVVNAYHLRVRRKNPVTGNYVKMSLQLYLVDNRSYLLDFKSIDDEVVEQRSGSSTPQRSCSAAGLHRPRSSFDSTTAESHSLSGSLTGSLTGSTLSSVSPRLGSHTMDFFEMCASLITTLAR
Sequence of AMPK(α2) (Q9Y478 whole entry partner, looked up): as the sequence (Q9Y478 whole entry partner, looked up) above
Sequence of AMPK(α2) (P54619 whole entry partner, looked up): as the sequence (P54619 whole entry partner, looked up) above
Protocol: as §3

cellular AMPK = assay: p-ACC(Ser79) ELISA in K562 cell lysates (glucose-free media, 2-DG); type: cell-based; settings: K562, glucose-free media, 2-DG 12 mM, compound 5 μM single dose; relative to DMSO control
Protocol: FIGS. 2A and 2B are a series of graphs showing the effects of compounds of the present disclosure on cellular levels of p-ACC(Ser79) in K562 cells. FIG. 2A Quantitative ELISA determination of p-ACC(Ser79) levels in K562 lysates (1.0 mg mL^−1 total protein) following growth in glucose-free media for 24 h, 2-DG (12 mM) treatment for 1 h followed by treatment with inhibitor compounds at 5.0 μM for 2 h. Relative p-ACC levels are reported as a percentage of levels resultant from DMSO control treatment. […] Cells were collected, washed with PBS and lysed on ice in lysis buffer containing 1% Triton X (Cell Signaling). Lysates were someated (1×5 seconds) and centrifuged for 10 minutes at 10,000 rpm and 4° C., and the protein concentration in supernatants was determined by Lowry assay. Lysates were diluted with ELISA PathScan® sample diluent to a final volume of 100 μL and protein concentration of 1.0 mg/ml prior to use. The concentration of p-ACC (Ser79) was determined using an enzyme-linked immunosorbent assay according to recommended protocol (Cell Signaling, ELISA PathScan® phospho-Acetyl-CoA Carboxylase (Ser79)) and expressed as a relative percentage of the DMSO control.
The AMPK substrate ACC is used as a biomarker for the relative activity of AMPK, and the levels of p-ACC(Ser79) were measured by ELISA in the absence or presence of the compounds to determine the compounds' effects on cellular AMPK activity. The presence of total AMPK, p-AMPK, total ACC, and p-ACC was measured by Western blot in a panel of leukemic cell lines grown in glucoe competent or glucose-free media. […] The cell lysates from K562 cells grown in glucose-free media in the presence 2-DG and treated with compounds of the present disclosure were analyzed by the p-ACC(Ser79) ELISA to determine the effect of the compounds on cellular AMPK activity.

K562 cells [4] = assay: CellTiter-Glo cell viability assay in K562 cells (glucose-free media); type: cell-based; settings: Homo sapiens, read-out: EC50 CellTiter Glo 24 h
Protocol: as §1, §2

KDR = KDR (Homo sapiens (Human), UniProt P35968); assay: LanthaScreen Eu TR-FRET KDR competitive binding assay; settings: read-out: IC50 (nM) KDR; mean±S.D. (n=3); competitive binding
Sequence of KDR (P35968 20-1356): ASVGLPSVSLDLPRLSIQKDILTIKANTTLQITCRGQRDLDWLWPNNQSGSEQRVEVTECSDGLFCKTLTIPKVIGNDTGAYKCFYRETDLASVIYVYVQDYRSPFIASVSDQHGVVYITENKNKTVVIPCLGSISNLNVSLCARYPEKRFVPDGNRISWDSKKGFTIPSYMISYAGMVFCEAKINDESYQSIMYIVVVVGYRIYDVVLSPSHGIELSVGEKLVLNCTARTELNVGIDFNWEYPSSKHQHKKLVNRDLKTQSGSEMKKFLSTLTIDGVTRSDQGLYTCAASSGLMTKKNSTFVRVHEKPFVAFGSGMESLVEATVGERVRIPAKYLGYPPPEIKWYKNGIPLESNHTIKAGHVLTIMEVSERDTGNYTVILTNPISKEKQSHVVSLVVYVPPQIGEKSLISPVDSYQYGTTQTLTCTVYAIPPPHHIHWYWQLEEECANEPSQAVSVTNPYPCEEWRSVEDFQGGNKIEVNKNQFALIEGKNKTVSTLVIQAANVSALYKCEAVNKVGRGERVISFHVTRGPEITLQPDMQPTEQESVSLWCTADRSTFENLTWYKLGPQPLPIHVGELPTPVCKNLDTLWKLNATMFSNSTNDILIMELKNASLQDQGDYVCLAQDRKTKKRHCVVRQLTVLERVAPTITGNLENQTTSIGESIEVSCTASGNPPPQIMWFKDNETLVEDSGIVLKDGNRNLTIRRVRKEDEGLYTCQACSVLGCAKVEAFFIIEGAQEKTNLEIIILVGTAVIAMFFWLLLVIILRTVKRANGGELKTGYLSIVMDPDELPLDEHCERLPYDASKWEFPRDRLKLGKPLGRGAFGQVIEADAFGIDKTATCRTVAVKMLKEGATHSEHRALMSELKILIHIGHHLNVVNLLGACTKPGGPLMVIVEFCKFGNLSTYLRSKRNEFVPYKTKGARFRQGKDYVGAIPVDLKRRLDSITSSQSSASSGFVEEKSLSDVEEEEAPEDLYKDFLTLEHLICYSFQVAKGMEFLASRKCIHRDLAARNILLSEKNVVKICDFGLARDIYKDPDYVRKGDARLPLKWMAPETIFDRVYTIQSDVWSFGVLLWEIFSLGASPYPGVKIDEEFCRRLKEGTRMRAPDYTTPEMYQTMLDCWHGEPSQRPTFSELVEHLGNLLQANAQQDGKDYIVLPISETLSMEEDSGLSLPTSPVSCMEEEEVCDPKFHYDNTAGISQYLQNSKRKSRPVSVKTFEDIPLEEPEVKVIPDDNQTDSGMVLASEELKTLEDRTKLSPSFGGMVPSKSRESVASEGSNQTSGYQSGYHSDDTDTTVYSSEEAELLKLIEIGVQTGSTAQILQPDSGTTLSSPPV

AMPKα1 [5] = target: T1, AMPKα1; settings: purified AMPK protein; read-out: AMPKα1 IC50, 32P radioactivity assay; cited from earlier work
Target sequence in this assay (Q13131 whole entry): as the sequence (Q13131 whole entry, looked up) above
Target sequence in this assay (Q9Y478 whole entry partner): as the sequence (Q9Y478 whole entry partner, looked up) above
Target sequence in this assay (P54619 whole entry partner): as the sequence (P54619 whole entry partner, looked up) above

BTK = BTK (Homo sapiens (Human), UniProt Q06187); assay: Kinome binding analysis at 100 nM, BTK
Sequence of BTK (Q06187 whole entry): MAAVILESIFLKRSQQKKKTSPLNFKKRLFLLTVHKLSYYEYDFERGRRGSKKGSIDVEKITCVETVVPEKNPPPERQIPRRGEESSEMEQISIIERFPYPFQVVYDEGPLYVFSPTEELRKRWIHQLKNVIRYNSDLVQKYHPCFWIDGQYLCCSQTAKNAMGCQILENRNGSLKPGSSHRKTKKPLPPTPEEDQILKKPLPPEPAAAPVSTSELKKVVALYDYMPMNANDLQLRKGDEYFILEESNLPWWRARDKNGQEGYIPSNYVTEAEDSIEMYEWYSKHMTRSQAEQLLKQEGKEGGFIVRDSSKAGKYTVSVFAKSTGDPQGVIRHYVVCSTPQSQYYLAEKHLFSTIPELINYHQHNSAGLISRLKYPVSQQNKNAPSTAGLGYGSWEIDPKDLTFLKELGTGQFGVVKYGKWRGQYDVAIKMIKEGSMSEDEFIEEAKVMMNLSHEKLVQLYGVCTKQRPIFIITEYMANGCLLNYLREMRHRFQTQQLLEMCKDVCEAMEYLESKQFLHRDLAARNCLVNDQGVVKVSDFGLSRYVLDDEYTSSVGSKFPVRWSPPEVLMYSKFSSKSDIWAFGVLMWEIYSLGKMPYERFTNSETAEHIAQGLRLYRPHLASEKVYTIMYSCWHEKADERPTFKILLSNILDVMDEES

468 kinases = 468 kinases (Homo sapiens, UniProt Q14004); assay: biochemical; type: binding; settings: read-out: % Inhibition @ 100 nM, CDC2L5
[6] = read-out: EC50 CellTox Green 48 h, 48 h

EC50 (K562 cells [1]): 6.79 ± 0.15 µM
AMPK(α1) % inhibition at 20 μM (AMPKα1 [3]; at 20 μM): 40%
AMPK(α2) % inhibition at 10 μM (AMPK(α2); at 10 μM): 17%
EC50 (K562 cells [4]): 11.8 ± 0.78 µM
Structure (SMILES): CCN(CC)CCNC(=O)c1c(C)[nH]c(/C=C2\C(=O)N(C)c3ccc(F)cc32)c1C [Compound No. 1, (Z)—N-(2-(Diethylamino)ethyl)-5-((5-fluoro-1-methyl-2-oxoindolin-3-ylidene)methyl)-2,4-dimethyl-1H-pyrrole-3-carboxamide]
EC50 (K562 cells [2]; read-out: EC50 CellTox Green 24 h, 24 h): 12.1 ± 0.91 µM
EC50 (K562 cells [2]; [6]): 6.91 ± 0.06 µM
Relative p-ACC(Ser79) level (cellular AMPK): 97.1 % of control

EC50 (K562 cells [1]): 14.8 ± 0.22 µM
IC50 (AMPKα1 [3]; mean±S.D. (n=3), ATP 8 μM, read-out: IC50 (nM) AMPK(α1)): 164 ± 10 nM
IC50 (KDR): 1330 ± 140 nM
IC50 (AMPK(α2); mean±S.D. (n=3), ATP 20 μM): 32.4 ± 7.8 nM
EC50 (K562 cells [4]): 17.8 ± 0.78 µM
Structure (SMILES): CCN(CC)CCNC(=O)c1c(C)[nH]c(/C=C2\C(=O)Nc3ccc(CCC#N)cc32)c1C [Compound No. 15, (Z)-5-((5-(2-cyanoethyl)-2-oxoindolin-3-ylidene)methyl)-N-(2-(diethylamino)ethyl)-2,4-dimethyl-1H-pyrrole-3-carboxamide]
EC50 (K562 cells [2]; [6]): 13.6 ± 1.07 µM
Relative p-ACC(Ser79) level (cellular AMPK): 34.1 % of control

Structure (SMILES): CNC(=O)c1ccccc1Oc1nc(Nc2cc(OC)c(OC)c(OC)c2)ncc1Br [SBI-0206965]
IC50 (AMPKα1 [5]): 0.4 µM

BTK inhibition, in words (BTK; 100 nM): strongly inhibited
inhibition at 0.1 µM (BTK; read-out: Percentage inhibition at 100 nM, BTK): 91.3%
inhibition at 0.1 µM (468 kinases): 49%
Structure (SMILES): CCN(CC)CCNC(=O)c1c(C)[nH]c(/C=C2\C(=O)Nc3ccc(F)cc32)c1C [Sunitinib, (Z)—N-(2-(Diethylamino)ethyl)-5-((5-fluoro-2-oxoindolin-3-ylidene)methyl)-2,4-dimethyl-1H-pyrrole-3-carboxamide, reference compound]
CellTox Green 24 h % inhibition at 50 μM (K562 cells [2]; 24 h, at 50 μM): 61% at 50 μM
